These results are taken from patent US20240108740A1, “THERAPEUTIC COMPOSITIONS INCLUDING SPN10 AND USES THEREOF” (Stealth BioTherapeutics Inc., priority 2022, published 2024).

Structures are written as SMILES. Residues, ends and D or L forms follow the SMILES beside them.

One assay relates to SH-SY5Y cells. The assay is described as follows: Example 27: apoptosis caused by oxidative stress (Hoechst 33342). In kind it is cell-based. Conditions: 0.025 mM t-BHP, 24 hours. As to the method: SH-SY5Y cells will be grown in 96-well plates and treated with t-BHP (0.025 mM) alone or in the presence of peptide conjugates, aromatic-cationic peptides, or SPN10(s) with or without aromatic-cationic peptides at 37° C. for 24 hours. All treatments will be carried out in quadruplicate. Cells will then be stained with 2 mg/mL Hoechst 33342 for 20 minutes, fixed with 4% paraformaldehyde, and imaged using a Zeiss fluorescent microscope (Axiovert 200M) equipped with the Zeiss Acroplan 20× objective. Nuclear morphology will be evaluated using an excitation wavelength of […] and a longpass filter of 400 nm for emission. All images will be processed and analyzed using MetaMorph software (Universal Imaging Corp., West Chester, PA, U.S.A.). Uniformly stained nuclei will be scored as healthy, viable neurons. Cells with condensed or fragmented nuclei will be scored as apoptotic.

For a further assay, the system named is animal models of ALF. Briefly: Example 44: animal models of acute liver failure (ALF). Conditions: in vivo. An excerpt:
Suitable animal models of ALF utilize surgical procedures, toxic liver injury, or a combination thereof. See Belanger & Butterworth, Metabolic Brain Disease, 20:409-423 (2005). Peptide conjugates, aromatic-cationic peptides, SPN10(s) with or without aromatic-cationic peptides or control vehicle will be administered prior to or simultaneously with a toxic or surgical insult. Hepatic function will be assessed by measuring serum hepatic enzymes (transaminases, alkaline phosphatase), serum bilirubin, serum ammonia, serum glucose, serum lactate, or serum creatinine. Efficacy of SPN10(s) (with or without aromatic-cationic peptides) or conjugates in preventing ALF will be indicated by a reduction in the occurrence or severity of the ALF as indicated by the above markers, as compared to control subjects.

The next assay relates to Sprague-Dawley rats. Briefly: Example 56: diabetic retinopathy in STZ and HFD/STZ rats. Format: in vivo, rat. As to the method: A rat model of diabetes will be established by combination of 6-week HFD and either 1) a low-dose STZ (30 mg/kg) injection, or 2) a single high dose of STZ (65 mg/kg) in Sprague-Dawley rats. See generally, Srinivasan, et al., Pharm. Res. 52(4):313-320 (2005). Controls will be maintained on normal rat chow (NRC). Treatment groups will be as follows: • Group A: 12 HFD/STZ peptide conjugates 10 mg/kg s.c • Group B: 12 HFD/STZ peptide conjugates 3 mg/kg s.c. • Group C: 12 HFD/STZ peptide conjugates 1 mg/kg s.c. • Group D: 10 HFD/STZ control vehicle. s.c. • Group E: 10 NRC control vehicle. s.c. • Group F: 12 HFD/STZ aromatic-cationic peptide (an equivalent molar dose of aromatic-cationic peptide based on concentration of the aromatic-cationic peptide administered in the 10 mg/kg s.c.q.d. peptide conjugate group) • Group G: 12 HFD/STZ aromatic-cationic peptide (an equivalent molar dose of aromatic-cationic peptide based on concentration of the aromatic-cationic peptide administered in the 3 mg/kg s.c.q.d. peptide conjugate group) • Group H: 12 HFD/STZ aromatic-cationic peptide (an equivalent molar dose of aromatic-cationic peptide based on concentration of the aromatic-cationic peptide administered in the 1 mg/kg s.c.q.d. peptide conjugate group) • Group I: 12 HFD/STZ SPN10 (an equivalent molar dose of SPN10 based on concentration of SPN10 administered in the 10 mg/kg s.c.q.d. peptide conjugate group) • Group J: 12 HFD/STZ SPN10 (an equivalent molar dose of SPN10 based on concentration of SPN10 administered in the 3 mg/kg s.c.q.d. peptide conjugate group) • Group K: 12 HFD/STZ SPN10 (an equivalent molar dose of SPN10 based on concentration of SPN10 administered in the 1 mg/kg s.c.q.d. peptide conjugate group). • Group L: SPN10(s) in combination with aromatic-cationic peptides (e.g., an equivalent molar dose of SPN10 based on the concentration of SPN10 administered in the 10 mg/kg s.c.q.d. peptide conjugate treatment group and an equivalent molar dose of aromatic-cationic peptide based on the concentration of aromatic-cationic peptide administered in the 10 mg/kg s.c.q.d. peptide conjugate treatment group) • Group M: SPN10(s) in combination with aromatic-cationic peptides (e.g., an equivalent molar dose of SPN10 based on the concentration of SPN10 administered in the 3 mg/kg s.c.q.d. peptide conjugate treatment group and an equivalent molar dose of aromatic-cationic peptide based on the concentration of aromatic-cationic peptide administered in the 3 mg/kg s.c.q.d. peptide conjugate treatment group) • Group N: SPN10(s) in combination with aromatic-cationic peptides (e.g., an equivalent molar dose of SPN10 based on the concentration of SPN10 administered in the 1 mg/kg s.c.q.d. peptide conjugate treatment group and an equivalent molar dose of aromatic-cationic peptide based on the concentration of aromatic-cationic peptide administered in the 1 mg/kg s.c.q.d. peptide conjugate treatment group)
Eyes will be harvested and subjects assessed for cataract formation, epithelial changes, integrity of the blood-retinal barrier, retinal microvascular structure, and retinal tight junction structure using methods known in the art.

Turning to `N=C(N)NCCC[C@H](NC(=O)[C@@H](N)Cc1c[nH]c2ccccc12)C(=O)N[C@@H](Cc1c[nH]c2ccccc12)C(=O)N[C@@H](CCCCN)C(N)=O` [SPN10, H-L-Trp-L-Arg-L-Trp-L-Lys-NH2] (H-WRWK-NH2), in the assay with SH-SY5Y cells, the “apoptosis induced by t-BHP” value is on record as “prevent SH-SY5Y cell apoptosis”. In addition, in the assay with animal models of ALF, the “reduced liver function after toxic or surgical liver insult” value is reported as “attenuate or prevent these effects”. Further, the “non-uniform distribution of tight junctions (claudin-5) along retinal vessels” value in the assay with Sprague-Dawley rats (HFD/STZ subjects) was “prevent, reverse, or attenuate this effect”. For the same compound, in the assay with Sprague-Dawley rats (STZ or HFD/STZ rats), the retinal microvascular changes result is on record as “reduce retinal microvascular changes”. In the assay on Sprague-Dawley rats (STZ rat model and HFD/STZ rat model), the epithelial cellular changes result is “reduce epithelial cellular changes”. For the same compound, in the assay on Sprague-Dawley rats (compared to control subjects), the “inner blood-retinal barrier function” value is listed as “improved inner blood-retinal barrier function”. Moreover, the “cataract formation in the lenses of diabetic rats” value in the assay with Sprague-Dawley rats (rat, in vivo) is “prevention or reversal of cataract formation”.
